Details: Gas

[C-]#[O+] [carbon monoxide]
Details	viscosity [mPa·s]
288.72 K, Mass density=0.52 kg/m3	0.01732
288.91 K, Mass density=0.78 kg/m3	0.01733
292.39 K, Mass density=0.52 kg/m3	0.0175
296.53 K, Mass density=0.78 kg/m3	0.0177
296.67 K, Mass density=0.78 kg/m3	0.0177
296.74 K, Mass density=0.52 kg/m3	0.01769
296.81 K, Mass density=0.52 kg/m3	0.0177
297.19 K, Mass density=0.52 kg/m3	0.01771
298.54 K, Mass density=0.52 kg/m3	0.01778
298.58 K, Mass density=0.52 kg/m3	0.01778
299.09 K, Mass density=0.52 kg/m3	0.0178
299.27 K, Mass density=0.52 kg/m3	0.01781
323.27 K, Mass density=0.78 kg/m3	0.0189
323.95 K, Mass density=0.52 kg/m3	0.01894
349.98 K, Mass density=0.78 kg/m3	0.02007
350.09 K, Mass density=0.52 kg/m3	0.02007
377.57 K, Mass density=0.78 kg/m3	0.02123
377.81 K, Mass density=0.52 kg/m3	0.02123
405.3 K, Mass density=0.78 kg/m3	0.02235
405.55 K, Mass density=0.52 kg/m3	0.02236
433.29 K, Mass density=0.78 kg/m3	0.02345
433.45 K, Mass density=0.52 kg/m3	0.02345
461.39 K, Mass density=0.78 kg/m3	0.02452
461.45 K, Mass density=0.52 kg/m3	0.02451
489.68 K, Mass density=0.78 kg/m3	0.02558
489.81 K, Mass density=0.52 kg/m3	0.02557
518.13 K, Mass density=0.78 kg/m3	0.02659
518.44 K, Mass density=0.52 kg/m3	0.0266
542.05 K, Mass density=0.52 kg/m3	0.02744
542.09 K, Mass density=0.78 kg/m3	0.02744
564.73 K, Mass density=0.78 kg/m3	0.02822
593.37 K, Mass density=0.52 kg/m3	0.02919
593.52 K, Mass density=0.78 kg/m3	0.0292
622.5 K, Mass density=0.52 kg/m3	0.03015
622.67 K, Mass density=0.78 kg/m3	0.03016
651.51 K, Mass density=0.78 kg/m3	0.0311
651.68 K, Mass density=0.52 kg/m3	0.0311
680.94 K, Mass density=0.78 kg/m3	0.03203
681.07 K, Mass density=0.52 kg/m3	0.03203

N#N [nitrogen]
Mass density=0.72 kg/m3
Details	viscosity [mPa·s]
291.55 K	0.01747
294.73 K	0.01762
296.88 K	0.01771
324 K	0.01894
350.42 K	0.02009
378.04 K	0.02125
405.75 K	0.02237
433.79 K	0.02347
461.81 K	0.02453
490.21 K	0.02559
518.59 K	0.02661
542.47 K	0.02747
565.16 K	0.02825
594.04 K	0.02922
623.22 K	0.0302
652.36 K	0.03114
681.99 K	0.03209
